pEC50: −log10 of the molar value. In brackets after ≈: the same amount, converted by molar mass.
Assays:
[1] = Solubility of the compound at pH 6.8; format: physicochemical; conditions: buffer
[2] = system: dengue virus type 2; test: Antiviral activity against DENV2 MY97-10340 infected in human A549 cells assessed as decrease in envelope protein production after 48 hrs by immunodetection method; format: functional, cell-based; conditions: MY97-10340, A549, 48 h
[3] = system: dengue virus type 3; test: Antiviral activity against DENV3 MY05-34640 infected in human A549 cells assessed as decrease in envelope protein production after 48 hrs by immunodetection method; format: functional, cell-based; conditions: MY05-34640, A549, 48 h
[4] = system: dengue virus type 4; test: Antiviral activity against DENV4 MY01-22713 infected in human A549 cells assessed as decrease in envelope protein production after 48 hrs by immunodetection method; format: functional, cell-based; conditions: MY01-22713, A549, 48 h
[5] = system: dengue virus type 1; test: Antiviral activity against DENV1 MY97-10245 infected in human A549 cells assessed as decrease in envelope protein production after 48 hrs by immunodetection method; format: functional, cell-based; conditions: MY97-10245, A549, 48 h
[6] = Cytotoxicity against human HepG2 cells; format: cell-based
[7] = Lipophilicity, log D of the compound at pH 7.4; format: physicochemical; conditions: buffer
[8] = Intrinsic clearance in human liver microsomes; format: ADME, microsome; conditions: read-out: CLH
[9] = system: dengue virus type 3; test: Antiviral activity against DENV3 H87 infected in BHK21 cells assessed as reduction in viral titer after 72 hrs by plaque assay; format: functional, cell-based; conditions: H87, BHK-21, 72 h
[10] = system: dengue virus type 2; test: Antiviral activity against DENV2 New Guinea C infected in human A549 cells assessed as reduction in viral titer after 48 hrs by plaque assay; format: functional, cell-based; conditions: Thailand/NGS-C/1944, A549, 48 h
[11] = system: dengue virus type 1; test: Antiviral activity against DENV1 West Pacific infected in BHK21 cells assessed as reduction in viral titer after 48 hrs by plaque assay; format: functional, cell-based; conditions: BHK-21, 48 h
[12] = system: dengue virus type 2; test: Antiviral activity against DENV2 TSVO1 infected in C6/36 cells assessed as reduction in viral titer after 72 hrs by plaque assay; format: functional, cell-based; conditions: TSVO1, C6/36, 72 h
[13] = system: dengue virus type 4; test: Antiviral activity against DENV4 H241 infected in BHK21 cells assessed as reduction in viral titer after 72 hrs by plaque assay; format: functional, cell-based; conditions: H241, BHK-21, 72 h

solubility [1] | pEC50 [2] | pEC50 [3] | pEC50 [4] | pEC50 [5] | logD [7] | microsomal CLint [8] | SMILES | CC50 [6] | pEC50 [9] | pEC50 [10] | pEC50 [11] | pEC50 [12] | pEC50 [13]
4 µM (≈ 1.91 µg/mL) | 6.00 | 6.52 | 6.22 | 6.15 |  |  | CSc1cccc(N2C(=O)CN(c3cccc(C(F)(F)F)c3)CC2C(=O)NC2CCCC2)c1 (stereo not drawn) | 20000 nM |  |  |  |  | 
 | 5.77 | 6.40 | 6.15 | 5.96 |  |  | O=C(NC1CCCC1)C1CN(c2cccc(C(F)(F)F)c2)CC(=O)N1c1cccc(OC(F)(F)F)c1 (stereo not drawn) | 8000 nM |  |  |  |  | 
< 4 µM | 7.00 | 7.52 | 7.52 | 7.15 | > 4.5 | 59 µL/min/mg | O=C(NC1CCCC1)[C@@H]1CN(c2ccc(C(F)(F)F)cc2)CC(=O)N1c1ccc2ccsc2c1 | 20000 nM |  |  |  |  | 
 | 4.96 | 6.10 | 5.70 | 5.70 |  |  | CSc1cccc(N2C(=O)CN(c3ccccc3)CC2C(=O)NC2CCCC2)c1 (stereo not drawn) | > 50000 nM |  |  |  |  | 
 | 4.96 | 5.89 | 5.60 | 5.40 |  |  | CSc1cccc(N2C(=O)CN(c3ccccc3)CC2(C)C(=O)NC2CCCC2)c1 (stereo not drawn) | > 50000 nM |  |  |  |  | 
 | 5.00 | 5.66 | 5.20 | 5.15 |  |  | CC(=O)c1cccc(N2C(=O)CN(c3cccc(C(F)(F)F)c3)CC2C(=O)NC2CCCC2)c1 (stereo not drawn) | 40000 nM |  |  |  |  | 
40 µM (≈ 19.1 µg/mL) | 5.92 | 6.70 | 6.22 | 6.40 |  |  | CSc1cncc(N2C(=O)CN(c3cccc(C(F)(F)F)c3)CC2C(=O)NC2CCCC2)c1 (stereo not drawn) | 26000 nM |  |  |  |  | 
 | 5.13 | 5.77 | 5.60 | 5.39 |  |  | CSc1cccc(N2C(=O)CN(c3cccc(C#N)c3)CC2C(=O)NC2CCCC2)c1 (stereo not drawn) | > 50000 nM |  |  |  |  | 
< 4 µM | 7.05 | 8.00 | 7.30 | 7.40 | > 4.5 | > 735 µL/min/mg | CSc1cccc(N2C(=O)c3cc4ccc(C(F)(F)F)cc4n3C[C@@]2(C)C(=O)NC2CCCC2)c1 | 20000 nM |  |  |  |  | 
 | 5.44 | 5.60 | 5.59 | 5.28 |  |  | CSc1cccc(N(C(=O)c2cc3ccc(C(F)(F)F)cc3[nH]2)[C@H](C)C(=O)NC2CCCC2)c1 | 15000 nM |  |  |  |  | 
 | 6.70 | 7.30 | 6.77 | 7.10 |  |  | CSc1cccc(N2C(=O)c3cc4ccc(C(F)(F)F)cc4n3CC2(C)C(=O)NC2CCCC2)c1 (stereo not drawn) | > 50000 nM |  |  |  |  | 
 | < 4.30 | 4.51 | 4.35 | < 4.30 |  |  | CSc1cccc(N2C(=O)CN(c3cccnc3)CC2C(=O)NC2CCCC2)c1 (stereo not drawn) | > 50000 nM |  |  |  |  | 
 | 5.00 | 5.41 | 5.70 | 5.29 |  |  | CSc1cccc(NC(=O)c2cc3ccc(C(F)(F)F)cc3n2CC(C)C(=O)NC2CCCC2)c1 (stereo not drawn) | 7100 nM |  |  |  |  | 
 | 5.77 | 5.70 | 5.82 | 5.66 |  |  | CSc1cccc(N(C(=O)c2cc3ccc(C(F)(F)F)cc3[nH]2)[C@@H](C)C(=O)NC2CCCC2)c1 | 7100 nM |  |  |  |  | 
 | 6.05 | 6.52 | 6.40 | 6.30 |  |  | O=C(NC1CCCC1)C1CN(c2ccc(C(F)(F)F)cc2)CC(=O)N1c1cnc2ccsc2c1 (stereo not drawn) | 30000 nM |  |  |  |  | 
 | 5.66 | 6.40 | 6.10 | 5.72 |  |  | CC(F)(F)c1cccc(N2C(=O)CN(c3cccc(C(F)(F)F)c3)CC2C(=O)NC2CCCC2)c1 (stereo not drawn) | 9000 nM |  |  |  |  | 
 | 5.10 | 5.19 | 5.24 | 5.21 |  |  | CSc1cccc(N2C(=O)CN(c3cc(C(F)(F)F)ccc3C)CC2C(=O)NC2CCCC2)c1 (stereo not drawn) | 10000 nM |  |  |  |  | 

solubility [1] | pEC50 [2] | pEC50 [3] | pEC50 [4] | pEC50 [5] | logD [7] | microsomal CLint [8] | SMILES | CC50 [6] | pEC50 [9] | pEC50 [10] | pEC50 [11] | pEC50 [12] | pEC50 [13]
 | 5.24 | 5.59 | 5.59 | 5.16 |  |  | O=C(NC1CCCC1)[C@H]1CN(c2ccc(C(F)(F)F)cc2)CC(=O)N1c1ccc2ccsc2c1 | 10000 nM |  |  |  |  | 
 | 6.00 | 6.40 | 6.30 | 6.10 |  |  | O=C(NC1CCCC1)C1CN(c2ccc(C(F)(F)F)cc2)CC(=O)N1c1ccc2ccoc2c1 (stereo not drawn) | 20000 nM |  |  |  |  | 
 | 5.57 | 6.30 | 5.77 | 5.25 |  |  | O=C(Nc1cccnc1)C1CN(c2ccccc2)CC(=O)N1c1ccc2ccsc2c1 (stereo not drawn) | > 50000 nM |  |  |  |  | 
 | 5.52 | 5.64 | 5.82 | 5.51 |  |  | CSc1cccc(N(CC(=O)NC2CCCC2)C(=O)c2cc3ccc(C(F)(F)F)cc3n2C)c1 | 6300 nM |  |  |  |  | 
 | 5.29 | 6.22 | 5.82 | 5.26 |  |  | CSc1cccc(N2C(=O)c3cc4ccc(C(F)(F)F)cc4n3C[C@]2(C)C(=O)NC2CCCC2)c1 | 20000 nM |  |  |  |  | 
 | < 4.30 | 4.89 | 4.55 | < 4.30 |  |  | CSc1cccc(N2C(=O)CN(c3cncc(C(F)(F)F)c3)CC2C(=O)NC2CCCC2)c1 (stereo not drawn) | > 50000 nM |  |  |  |  | 
 | 5.70 | 7.05 | 5.92 | 5.55 |  |  | N#Cc1cccc(NC(=O)C2CN(c3ccccc3)CC(=O)N2c2ccc3ccsc3c2)c1 (stereo not drawn) | > 50000 nM |  |  |  |  | 
 | 6.00 | 7.30 | 6.70 | 5.74 |  |  | O=C(NC1CCC1)C1CN(c2ccccc2)CC(=O)N1c1ccc2ccsc2c1 (stereo not drawn) | > 50000 nM |  |  |  |  | 
 | 5.82 | 6.89 | 5.72 | 5.70 |  |  | NC(=O)c1cccc(NC(=O)C2CN(c3ccccc3)CC(=O)N2c2ccc3ccsc3c2)c1 (stereo not drawn) | > 50000 nM |  |  |  |  | 
 | 5.27 | 5.80 | 5.62 | 5.54 |  |  | COc1cccc(N2CC(=O)N(c3cccc(SC)c3)C(C(=O)NC3CCCC3)C2)c1 (stereo not drawn) | > 50000 nM |  |  |  |  | 
 | 5.82 | 6.77 | 6.05 | 5.62 |  |  | O=C(NC1CCCC1)C1CN(c2ccccc2)CC(=O)N1c1ccc2ccsc2c1 (stereo not drawn) | > 50000 nM |  |  |  |  | 
 |  |  |  |  |  |  | COc1ccc(-c2csc(NC(=O)c3cc(C(C)(C)C)cc(C(C)(C)C)c3)n2)cc1 |  | 5.39 to 6.00 | 5.39 to 6.00 | 5.39 to 6.00 | 5.39 to 6.00 | 5.39 to 6.00
 | 6.52 | 7.10 | 7.00 | 6.70 |  |  | O=C(NC1CCCC1)C1CN(c2ccc(C(F)(F)F)cc2)CC(=O)N1c1ccc2ccsc2c1 (stereo not drawn) | 10000 nM |  |  |  |  | 
 | 5.66 | 6.70 | 6.22 | 5.21 |  |  | O=C(NCC1CC1)C1CN(c2ccccc2)CC(=O)N1c1ccc2ccsc2c1 (stereo not drawn) | > 50000 nM |  |  |  |  | 
 | 6.30 | 7.05 | 6.38 | 6.49 |  |  | CSc1cccc(N2C(=O)c3ccc(-c4ccco4)n3CC2(C)C(=O)NC2CCCC2)c1 (stereo not drawn) | > 50000 nM |  |  |  |  | 
 | 6.22 | 6.70 | 6.70 | 6.30 |  |  | CSc1cccc(N2C(=O)CN(c3ccc(C(F)(F)F)cc3)CC2C(=O)NC2CCCC2)c1 (stereo not drawn) | 10000 nM |  |  |  |  | 
